Values quoted from earlier work as cited in patent US20070254858A1, “Contraceptive and Acne Medication Combination and Treatment of Acne and Other Diseases with Reduced Side Effects” (priority 2006, published 2007).

How the values were obtained:
progesterone activity = details: 1 mg of progestin; activity of 1 mg of norethindrone taken as baseline
[1] = tested on: androgen (testosterone-like) activity; details: 1 mg of progestin; activity of 1 mg of norethindrone taken as baseline
severe acne = details: within 12 to 16 weeks of isotretinoin treatment
[2] = tested on: sebaceous gland / sebocytes
[3] = in vivo

C[C@]12CCC(=O)C=C1[C@@H]1C[C@@H]1[C@H]1[C@@H]3[C@@H]4C[C@@H]4[C@@]4(CCC(=O)O4)[C@@]3(C)CC[C@@H]12 [drospirenone]
Progestational Activity (progesterone activity): 1.5
Androgen Activity [1]: 0

C#C[C@]1(OC(C)=O)CC[C@H]2[C@@H]3CCC4=CC(=O)CC[C@@H]4[C@H]3CC[C@@]21C [norethindrone acetate]
Progestational Activity (progesterone activity): 1.2

C#C[C@]1(O)CC[C@H]2[C@@H]3CCC4=CC(=NO)CC[C@@H]4[C@H]3CC[C@@]21CC (mixture of isomers) [norelgestromin]
Progestational Activity (progesterone activity): 1.3
Androgen Activity [1]: 1.9

C#C[C@]1(O)CC[C@H]2[C@@H]3CCC4=CC(=O)CC[C@@H]4[C@H]3CC[C@@]21C [norethindrone]
Progestational Activity (progesterone activity): 1

C#C[C@]1(OC(C)=O)CC[C@H]2[C@@H]3CCC4=CC(=NO)CC[C@@H]4[C@H]3CC[C@@]21CC (mixture of isomers) [norgestimate]
Progestational Activity (progesterone activity): 1.3

CC1=C(/C=C/C(C)=C/C=C/C(C)=C\C(=O)O)C(C)(C)CCC1 [isotretinoin, 13-cis-retinoic acid]
people with severe acne in complete or near complete cure (severe acne): Up to 90%
effect of food on absorption (drug taken with food): absorption is enhanced
accumulation in the skin (during long term administration): no progressive accumulation
parent drug in urine (oral isotretinoin): No parent drug is identified in the urine
placental transfer (oral isotretinoin): crosses the placenta
half-life (oral isotretinoin, compared to etretinate): 7 to 37 h
reduction of sebocyte lipid synthesis ([2]; daily doses as low as 0.1 mg/kg after four weeks): 75%
reduction of sebaceous gland size ([2]; in vivo): up to 90%
most significant side effect [3]: teratogenicity (birth defects)

C#CC1(O)CC[C@H]2[C@@H]3CCC4=CC(=O)CC[C@@H]4[C@H]3CC[C@@]21CC (mixture of isomers) [dl-norgestrel]
Progestational Activity (progesterone activity): 2.6

C#C[C@]1(O)CC[C@H]2[C@@H]3CCC4=CCCC[C@@H]4[C@H]3C(=C)C[C@@]21CC [desogestrel]
Progestational Activity (progesterone activity): 9

C#C[C@]1(OC(C)=O)CC[C@H]2[C@@H]3CCC4=C[C@@H](OC(C)=O)CC[C@@H]4[C@H]3CC[C@@]21C [ethynodiol diacetate]
Progestational Activity (progesterone activity): 1.4
